From patent US8563567B2, “Substituted heterocyclic compounds” (ArQule, Inc., priority 2009, dated 2013)

Legend:
[1] = molecular target: T1, FGFR2 (N549H) (Homo sapiens, UniProt P21802, N549H); assay: FGFR2 kinase activity assay (fluorescent ELISA); assay type: biochemical
T1 construct: purchased Millipore 14-742
Experimental: The enzymatic assays described herein are conducted according to the following procedures from commercially available reagents. In one, non limiting, example, a fluorescent ELISA assay is used to identify and characterize inhibitors of FGFR2 kinase as described herein. This heterogeneous assay utilizes a biotinylated peptide with a tyrosine motif as a substrate and an anti-phospho-tyrosine antibody to measure phosphorylation of the substrate. The reaction is initiated by adding the test compound, 37 μM Pyk2 substrate (Midwest Biotech, Cat. # MBT2383), 12.5 μM ATP (Roche, Cat. #11 140 965 001) and 0.5 μM FGFR2 enzyme (Millipore, Cat. #14-742) sequentially to a non-binding polypropylene V-well plate. All reagents are in an assay buffer consisting of: 50 mM Tris-HCL, 0.02 mg/ml BSA, 10 mM MgCl2, 0.1 mM Na3VO4, 1 mM EGTA, 75 μM ATP, 0.01% NP-40, 2 mM DTT and 10% glycerol. The reaction is incubated for 60 minutes. As the reaction proceeds, FGFR2 phosphorylates tyrosines in the peptide. The reaction mixture is then moved to a blocked streptavidin-coated Nunc Maxisorb plate (coated with 100 ng streptavidin from Pierce (Cat. #15-124) per well), allowing for the capture of the biotinylated peptide. Peptides are captured for 30 minutes at room temperature, the phosphorylation of peptides continues during this phase. The reaction is stopped by washing the streptavidin-coated plate 6 times with TBST. Phosphorylated peptide is detected by adding anti-phospho-tyrosine antibody (Cell Signaling, Cat. #9411, diluted 1:3000) to the streptavidin-coated plate. Unbound anti-phospho-tyrosine antibody is removed by washing the streptavidin-coated plate 6 times with TBST. Secondary detection is performed using alkaline phosphatase tagged goat anti-mouse antibody (Pierce, Cat. #31320, diluted 1:4000) for one hour. Unbound secondary antibody is removed by washing the streptavidin-coated plate 6 times with TBST. The fluorescent readout is initiated by adding to the streptavidin-coated plate Promega Attophos substrate (Promega, Cat. # S1000, dilution=6 mg/10 ml), which, when dephosphorylated by alkaline phosphatase, emits a fluorescent signal of 595 nm in wavelength when excited by a signal of 400 nm in wavelength. The reading of the 595 nm signal is done on the Perkin Elmer Envision system. Compounds which prevent FGFR2 from phosphorylating the peptide result in a lower fluorescent signal. The 595 nm fluorescent signal is directly proportional to the activity of FGFR2. Thus, the inhibition of FGFR2 by compounds is monitored by the decrease in the 595 nm fluorescent signal.

[2] = molecular target: Abl (T315I) (Homo sapiens, UniProt P00519, T315I); assay: Abl kinase activity assay (fluorescent ELISA, AblTide substrate); assay type: biochemical
Experimental: The disclosed compounds were assayed for their ability to inhibit the activity of ABL kinase. Nunc Maxisorb plates are coated with streptavidin by overnight incubation with 100 μL per well of 1 μg/mL streptavidin in DPBS. Prior to the start of the experiment, the plates are washed with TBST (3×200 μL) and blocked for at least 3 hours by adding 150 μL of 5% BSA/TBST. The plates are washed with TBST (3×200 μL/well) and left dry immediately before the capture step.
The test articles and controls (Gleevec) are prepared using the following assay buffer @ 10× desired final concentration (50 mM Tris pH 7.0, 0.02 mg/ml BSA, 10 mM MgCl2, 0.1 mM Na3VO4, 1 mM EGTA, 0.01% NP-40, 1 mM DTT in 10% glycerol/water). In a reaction plate are added rapidly 5 μL test article (or control) and 30 μL ABL or ABL T315I (0.089 nM final concentration, in the above buffer). The plate is incubated for 20 minutes. To the reaction plate is added ATP (100 μM final concentration) and AblTide (128 nM final concentration) in a volume of 15 μL. The plate is incubated at room temperature for one hour.
From the reaction plate, 40 μL is transferred to the streptavidin coated plate. The capture plate is incubated at room temperature for 30 minutes then washed 3× with TBST. To the capture plate is added 100 μL/well of Cell Signaling anti-phospho tyrosine at a dilution of 1:3000 in 2% BSA/TBST. The plate is incubated for two hours at room temperature then washed 3× with TBST. To the capture plate is added 100 μL/well of Alkaline Phosphatase Tagged Goat anti Mouse Antibody at a dilution of 1:4000 in 2% BSA/TBST. The plate is incubated for one hour at room temperature then washed 3× with TBST.
The fluorescent readout was initiated by the addition of 100 μL/well of Attophos reagent (6 mg/10 mL). The reading was done on the Perkin Elmer Envision system.

[3] = system: MDA-MB-231; assay: MTS assay, MDA-MB-231; assay type: cell-based; details: Homo sapiens, MDA-MB-231, 72 h
Experimental: (§1) Cells were maintained at 37° C., 5% CO2 in RPMI media supplemented with 1% fetal bovine serum, penicillin/streptomycin and fungizone (Invitrogen). Cells were seeded into 96-well tissue culture plates at 3000 per well and cultured at 37° C. for 18 h. Test compounds were dissolved and diluted to 300× in DMSO then diluted 1:40 in DMEM. Cells were incubated with test compounds for 72 hours followed by incubation with tetrazolium compound (3-(4,5-dimethylthiazol-2-yl)-5-(3-carboxymethoxyphenyl)-2-(4-sulfophenyl)-2H-tetrazolium, inner salt; MTS) and the electron coupling reagent, phenazine methosulfate (PMS) for 4 hours. […] The ability of compounds to inhibit cell growth in this assay is correlated with the reduction of dehydrogenase enzyme activity found in metabolically active cells. The measurement of the absorbance of the formazan was assessed using an ENVISION™ (Perkin Elmer) microplate reader at 492 nm. The calculated IC50 value is the concentration of the test compound that causes a 50% decrease in the absorbance.

[4] = system: DLD-1; assay: MTS assay, DLD-1; assay type: cell-based; details: Homo sapiens, DLD-1, 72 h
Experimental: as §1

T1 sequence (P21802 22-821 N549H): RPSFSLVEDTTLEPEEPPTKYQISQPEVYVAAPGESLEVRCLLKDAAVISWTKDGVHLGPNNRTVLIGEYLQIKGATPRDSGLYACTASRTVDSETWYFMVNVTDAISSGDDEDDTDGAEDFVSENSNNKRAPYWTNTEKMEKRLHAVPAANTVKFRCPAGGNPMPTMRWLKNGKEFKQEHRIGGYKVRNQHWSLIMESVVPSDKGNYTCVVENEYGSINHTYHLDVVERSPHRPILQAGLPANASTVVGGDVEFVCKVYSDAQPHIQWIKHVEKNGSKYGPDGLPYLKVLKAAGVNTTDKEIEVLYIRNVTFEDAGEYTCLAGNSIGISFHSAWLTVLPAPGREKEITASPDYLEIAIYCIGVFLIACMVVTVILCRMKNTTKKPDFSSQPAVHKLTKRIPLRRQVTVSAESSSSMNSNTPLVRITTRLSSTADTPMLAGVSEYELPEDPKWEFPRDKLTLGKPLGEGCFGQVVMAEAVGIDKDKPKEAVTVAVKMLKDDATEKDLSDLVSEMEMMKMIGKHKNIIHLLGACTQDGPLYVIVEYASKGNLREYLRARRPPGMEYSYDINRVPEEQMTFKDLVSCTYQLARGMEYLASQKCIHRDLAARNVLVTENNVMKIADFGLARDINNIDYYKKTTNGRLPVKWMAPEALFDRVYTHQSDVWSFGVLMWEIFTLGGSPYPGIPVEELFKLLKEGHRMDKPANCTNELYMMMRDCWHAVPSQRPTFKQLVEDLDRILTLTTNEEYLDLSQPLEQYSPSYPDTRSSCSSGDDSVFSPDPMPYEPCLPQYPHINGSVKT

Structure (SMILES)	inhibition at 30 µM [1] [%]	inhibition at 10 µM [2] [%]	inhibition at 10 µM [3] [%]	inhibition at 10 µM [4] [%]
O=c1[nH][nH]c(-c2cn3c4c(cccc24)CCC3)c1-c1c[nH]c2ccccc12 [Compound 4, 5-(5,6-dihydro-4H-pyrrolo[3,2,1-ij]quinolin-1-yl)-4-(1H-indol-3-yl)-1,2-dihydro-3H-pyrazol-3-one]	96	63	–	–
O=c1[nH][nH]c(-c2ccccc2)c1-c1cn2c3c(cccc13)CCC2 [Compound 10, 4-(5,6-dihydro-4H-pyrrolo[3,2,1-ij]quinolin-1-yl)-5-phenyl-1,2-dihydro-3H-pyrazol-3-one]	–	25	37	46
O=c1[nH][nH]c(-c2ccc(Cl)cc2)c1-c1cn2c3c(cccc13)CCC2 [Compound 11, 5-(4-chlorophenyl)-4-(5,6-dihydro-4H-pyrrolo[3,2,1-ij]quinolin-1-yl)-1,2-dihydro-3H-pyrazol-3-one]	–	13	97	97
O=c1[nH][nH]c(-c2cc3ccccc3s2)c1-c1cn2c3c(cccc13)CCC2 [Compound 12, 5-(1-benzothien-2-yl)-4-(5,6-dihydro-4H-pyrrolo[3,2,1-ij]quinolin-1-yl)-1,2-dihydro-3H-pyrazol-3-one]	–	53	90	87
CC(C)(C)Cc1[nH][nH]c(=O)c1-c1cn2c3c(cccc13)CCC2 [Compound 14, 4-(5,6-dihydro-4H-pyrrolo[3,2,1-ij]quinolin-1-yl)-5-(2,2-dimethylpropyl)-1,2-dihydro-3H-pyrazol-3-one]	–	8	72	57
O=c1[nH][nH]c(-c2ccccc2Cl)c1-c1cn2c3c(cccc13)CCC2 [Compound 15, 5-(2-chlorophenyl)-4-(5,6-dihydro-4H-pyrrolo[3,2,1-ij]quinolin-1-yl)-1,2-dihydro-3H-pyrazol-3-one]	33	20	–	–
Cc1ccc(-c2[nH][nH]c(=O)c2-c2cn3c4c(cccc24)CCC3)cc1 [Compound 16, 4-(5,6-dihydro-4H-pyrrolo[3,2,1-ij]quinolin-1-yl)-5-(4-methylphenyl)-1,2-dihydro-3H-pyrazol-3-one]	–	83	63	78
O=c1[nH][nH]c(-c2ccc(Cl)cc2Cl)c1-c1cn2c3c(cccc13)CCC2 [Compound 17, 5-(2,4-dichlorophenyl)-4-(5,6-dihydro-4H-pyrrolo[3,2,1-ij]quinolin-1-yl)-1,2-dihydro-3H-pyrazol-3-one]	48	81	–	40
COc1ccc(-c2[nH][nH]c(=O)c2-c2cn3c4c(cccc24)CCC3)cc1 [Compound 18, 4-(5,6-dihydro-4H-pyrrolo[3,2,1-ij]quinolin-1-yl)-5-(4-methoxyphenyl)-1,2-dihydro-3H-pyrazol-3-one]	–	9	59	72
O=c1[nH][nH]c(C2CCCC2)c1-c1cn2c3c(cccc13)CCC2 [Compound 19, 5-cyclopentyl-4-(5,6-dihydro-4H-pyrrolo[3,2,1-ij]quinolin-1-yl)-1,2-dihydro-3H-pyrazol-3-one]	–	77	–	–
O=c1[nH][nH]c(-c2ccccc2Br)c1-c1cn2c3c(cccc13)CCC2 [Compound 20, 5-(2-bromophenyl)-4-(5,6-dihydro-4H-pyrrolo[3,2,1-ij]quinolin-1-yl)-1,2-dihydro-3H-pyrazol-3-one]	45	87	–	–
O=c1[nH][nH]c(-c2cccc(F)c2)c1-c1cn2c3c(cccc13)CCC2 [Compound 21, 4-(5,6-dihydro-4H-pyrrolo[3,2,1-ij]quinolin-1-yl)-5-(3-fluorophenyl)-1,2-dihydro-3H-pyrazol-3-one]	75	79	–	–
CCOc1ccc2ccccc2c1-c1[nH][nH]c(=O)c1-c1cn2c3c(cccc13)CCC2 [Compound 22, 4-(5,6-dihydro-4H-pyrrolo[3,2,1-ij]quinolin-1-yl)-5-(2-ethoxy-1-naphthyl)-1,2-dihydro-3H-pyrazol-3-one]	41	11	–	–
CC(C)c1[nH][nH]c(=O)c1-c1cn2c3c(cccc13)CCC2 [Compound 23, 4-(5,6-dihydro-4H-pyrrolo[3,2,1-ij]quinolin-1-yl)-5-isopropyl-1,2-dihydro-3H-pyrazol-3-one]	–	8	–	–
O=C(Nc1ccccc1OC(F)F)N1CCC(CNc2nccc(-c3cn4c5c(cccc35)CCC4)n2)CC1 [Compound 50, N-(2-(difluoromethoxy)phenyl)-4-((4-(5,6-dihydro-4H-pyrrolo[3,2,1-ij]quinolin-1-yl)pyrimidin-2-ylamino)methyl)piperidine-1-carboxamide]	55	–	53	55
CC(=O)c1ccccc1NC(=O)N1CCC(CNc2nccc(-c3cn4c5c(cccc35)CCC4)n2)CC1 [Compound 51, N-(2-acetylphenyl)-4-((4-(5,6-dihydro-4H-pyrrolo[3,2,1-ij]quinolin-1-yl)pyrimidin-2-ylamino)methyl)piperidine-1-carboxamide]	52	–	72	97
COc1ccc(NC(=O)N2CCC(CNc3nccc(-c4cn5c6c(cccc46)CCC5)n3)CC2)c(OC)c1 [Compound 53, 4-((4-(5,6-dihydro-4H-pyrrolo[3,2,1-ij]quinolin-1-yl)pyrimidin-2-ylamino)methyl)-N-(2,4-dimethoxyphenyl)piperidine-1-carboxamide]	48	–	95	98
COc1ccccc1C(=O)N1CCC(CNc2nccc(-c3cn4c5c(cccc35)CCC4)n2)CC1 [Compound 54, (4-((4-(5,6-dihydro-4H-pyrrolo[3,2,1-ij]quinolin-1-yl)pyrimidin-2-ylamino)methyl)piperidin-1-yl)(2-methoxyphenyl)methanone]	46	–	37	95
